For one series, the system named is carboxylesterase. The following applies: carboxylesterase-mediated; rest eliminated through alternative pathways; cited from earlier work.
Series [1] deals with SY5Y-TrkB human neuroblastoma cells. Kind of series: Tumor growth inhibition in the murine xenograft model of neuroblastoma. The series is classed as in vivo, athymic nu/nu mice. The note with it: three weeks. As for the experimental part: For xenograft studies, athymic nu/nu mice (nine animals per group) were injected in the flank with 10^7 SY5Y-TrkB human neuroblastoma cells in 0.3 mL […]™ matrix (BD Biosciences, Franklin Lakes, N.J.). Treatment was started when the average SY5Y-TrkB tumor size was 0.2 cm^3. Nanoparticles were administered intravenously through the tail vein twice a week at a dose equivalent to 10 mg/kg of SN-38 per injection for comparison against a ‘no treatment’ control and a clinically used irinotecan formulation (CAMPTOSAR®, Pfizer, given orally five times a week at a therapeutically relevant dose of 10 mg/kg as described in Thompson J. et al., Efficacy of oral irinotecan against neuroblastoma xenografts, Anticancer Drugs. 1997 April; 8(4):313-22). Tumor size in each group was measured daily over a period of three weeks. […] The error bars in FIG. 2A represent standard deviations.
Tumor growth inhibition by PLA-PEG nanoparticles loaded with an SN-38 conjugate with tocopherol succinate (made according to Example 7) was administered over 4 weeks at indicated dose regimens (each injection equivalent to 10 mg SN-38/kg) to animals xenografted as in Example 8. The effect is shown in comparison to irinotecan administered 5 times a week for 4 weeks at the same dose per injection. Animals were sacrificed after their tumors reached 3 cm^3. […]

Molecules are shown by their SMILES.

Here are results for one molecule from US20150119388A1, “NOVEL PRO- AND CODRUG DERIVATIVES FOR NANOPARTICLE DELIVERY OF SELECT ANTICANCER AGENTS FORMED USING RAPIDLY CLEAVABLE PHENOLIC ESTER BRIDGES” (THE CHILDREN'S HOSPITAL OF PHILADELPHIA, priority 2012, published 2015).

In the case of `CCc1c2c(nc3ccc(OC(=O)N4CCC(N5CCCCC5)CC4)cc13)-c1cc3c(c(=O)n1C2)COC(=O)[C@]3(O)CC` [irinotecan], the “rate of conversion to the pharmacologically active SN-38” value in the series with carboxylesterase was “less than 10%”. In addition, in series [1] (CAMPTOSAR given orally five times a week at 10 mg/kg (50 mg/kg per week)), the “efficacy on tumor size (FIG. 2A)” value was “showed efficacy vs. ‘no treatment’ control”. Also, in series [1] (CAMPTOSAR given orally five times a week at 10 mg/kg, vs 'no treatment' control), the “animal survival (FIG. 2B)” value is “significantly improved animal survival compared with the control group”.
